Patent US9204653B2, “5-fluoro pyrimidine derivatives” (DOW AGROSCIENCES LLC, priority 2008, dated 2015)
Read-outs that look alike come from different tables or passages of the source.

Tested on: Mycosphaerella graminicola; Anamorph: Septoria tritici; Bayer Code SEPTTR
Experiment: Leaf blotch of wheat, foliar fungicide treatment, one day protectant (1DP) or three day curative (3DC)
Assay type: in vivo, Septoria tritici on wheat plants (variety Yuma)
Details: Zymoseptoria tritici, percent disease control rating
[1] = 24 h, one day protectant (1DP), read-out: SETTTR 1DP 25 ppm
[2] = 24 h, one day protectant (1DP), read-out: SEPTTR 1DP 100 ppm
[3] = 72 h, three day curative (3DC), read-out: SEPTTR 3DC 25 ppm
[4] = 72 h, three day curative (3DC), read-out: SEPTTR 3DC 100 ppm

Row | SMILES | pest or weed control at 25 ppm [1] [%] | pest or weed control at 100 ppm [2] [%] | pest or weed control at 25 ppm [3] [%] | pest or weed control at 100 ppm [4] [%]
1 | Nc1nc(OCc2cccc(Br)c2)ncc1F [Compound 2, 2-(3-Bromobenzyloxy)-5-fluoropyrimidin-4-ylamine] | 76 to 100 | 76 to 100 | 76 to 100 | 76 to 100
2 | CC(=O)Nc1nc(OCc2cccs2)ncc1F [Compound 6, N-[5-Fluoro-2-(thiophen-2-ylmethoxy)pyrimidin-4-yl]acetamide] | 76 to 100 | 76 to 100 | 76 to 100 | 76 to 100
3 | CC[Si](CC)(CC)Nc1nc(OCc2ccc(F)cc2)ncc1F [Compound 8, [5-Fluoro-2-(4-fluorobenzyloxy)pyrimidin-4-yl]triethylsilanylamine] | 76 to 100 | 76 to 100 | 76 to 100 | 76 to 100
4 | O=C(Nc1nc(OCc2ccc(F)cc2)ncc1F)c1snc(Cl)c1Cl [Compound 12, 3,4-Dichloroisothiazole-5-carboxylic acid [5-fluoro-2-(4-fluorobenzyl-oxy)pyrimidin-4-yl]amide] | 76 to 100 | 76 to 100 | 76 to 100 | 76 to 100
5 | Cc1ccc(COc2ncc(F)c(NCO)n2)cc1 [Compound 16, [5-Fluoro-2-(4-methylbenzyloxy)pyrimidin-4-ylamino]methanol] | 76 to 100 | 76 to 100 | 76 to 100 | 76 to 100
6 | OCNc1nc(OCc2ccc(F)cc2)ncc1F [Compound 17] | 76 to 100 | 76 to 100 | 76 to 100 | 76 to 100
7 | Fc1ccc(COc2ncc(F)c(NCOCc3ccccc3)n2)cc1 [Compound 18, Benzyloxymethyl[5-fluoro-2-(4-fluorobenzyloxy)pyrimidin-4-yl]amine] | 51 to 75 | 76 to 100 | 51 to 75 | 51 to 75
8 | CC(C)(C)C(=O)OCNc1nc(OCc2ccc(F)cc2)ncc1F [Compound 19, 2,2-Dimethylpropionic acid[5-fluoro-2-(4-fluorobenzyloxy)pyrimidin-4-ylamino]methyl ester] | 76 to 100 | 76 to 100 | 51 to 75 | 76 to 100
9 | Fc1ccc(COc2ncc(F)c(/N=C/N3CCCC3)n2)cc1 [Compound 21, [5-Fluoro-2-(4-fluorobenzyloxy)pyrimidin-4-yl]-[1-pyrrolidin-1-yl-methylidene]amine] | 76 to 100 | 76 to 100 | 76 to 100 | 76 to 100
10 | O/N=C\Nc1nc(OCc2ccc(F)cc2)ncc1F [Compound 22, N-[5-Fluoro-2-(4-fluorobenzyloxy)pyrimidin-4-yl]-N′-hydroxy-formamidine] | 76 to 100 | 76 to 100 | 76 to 100 | 76 to 100
11 | CN(C)/C=N/c1nc(O)ncc1F [Compound 25, N′-(5-Fluoro-2-hydroxy-pyrimidin-4-yl)-N,N-dimethyl-formamidine] | 76 to 100 | 76 to 100 | 76 to 100 | 76 to 100
12 | CCOC(=O)Oc1ncc(F)c(/N=C/N(C)C)n1 [Compound 26, Carbonic acid 4-(dimethylamino-methyleneamino)-5-fluoropyrimidin-2-yl ester ethyl ester] | 76 to 100 | 76 to 100 | 76 to 100 | 76 to 100
13 | CN(C)/C=N/c1nc(OC(=O)c2ccccc2)ncc1F [Compound 27, Benzoic acid 4-(dimethylamino-methyleneamino)-5-fluoropyrimidin-2-yl ester] | 76 to 100 | 76 to 100 | 76 to 100 | 76 to 100
14 | CN(C)/C=N/c1nc(OS(=O)(=O)c2ccccc2)ncc1F [Compound 28, Benzenesulfonic acid 4-(dimethylamino-methyleneamino)-5-fluoro-pyrimidin-2-yl ester] | 76 to 100 | 76 to 100 | 76 to 100 | 76 to 100
15 | Nc1nc(OS(=O)(=O)c2ccccc2)ncc1F [Compound 29, Benzenesulfonic acid 4-amino-5-fluoropyrimidin-2-yl ester] | 76 to 100 | 76 to 100 | 51 to 75 | 76 to 100
16 | Fc1ccc(COc2ncc(F)c(NCc3ccccc3F)n2)cc1 [Compound 30, (2-Fluorobenzyl)-[5-fluoro-2-(4-fluorobenzyloxy)pyrimidin-4-yl]amine] | 51 to 75 | 76 to 100 | 51 to 75 | 76 to 100
17 | COc1ccc(N(N)c2nc(OCc3cccc(OC)c3)ncc2F)cc1 [Compound 31, 5-Fluoro-2-(3-methoxybenzyloxy)-4-(1-(4-methoxyphenyl)-hydrazinyl)pyrimidine] | 0 to 25 | 0 to 25 | 0 to 25 | 0 to 25

Row | SMILES | pest or weed control at 25 ppm [1] [%] | pest or weed control at 100 ppm [2] [%] | pest or weed control at 25 ppm [3] [%] | pest or weed control at 100 ppm [4] [%]
18 | C=CCONc1nc(OCc2cccc(OC)c2)ncc1F [Compound 32, O-Allyl-N-(5-fluoro-2-(3-methoxybenzyloxy)pyrimidin-4-yl)hydroxylamine] | 26 to 50 | 76 to 100 | 0 to 25 | 76 to 100
19 | N#Cc1cccc(COc2ncc(F)c(N)n2)c1 [Compound 33] | 76 to 100 | 76 to 100 | 76 to 100 | 76 to 100
20 | N#Cc1cccc(COc2ncc(F)c(NC(=O)NCc3ccccc3F)n2)c1 [Compound 34, 1-[2-(3-Cyanobenzyloxy)-5-fluoropyrimidin-4-yl]-3-(2-fluorobenzyl)urea] | 0 to 25 | 0 to 25 | 0 to 25 | 0 to 25
21 | CCCNC(=S)Nc1nc(OCc2ccc(F)cc2)ncc1F [Compound 37] | 76 to 100 | 76 to 100 | 76 to 100 | 76 to 100
22 | Cc1ccc(COc2ncc(F)c(NS(C)(=O)=O)n2)cc1 [Compound 38, N-[5-Fluoro-2-(4-methylbenzyloxy)pyrimidin-4-yl]methanesulfonamide] | 26 to 50 | 26 to 50 | 0 to 25 | 26 to 50
23 | O=[N+]([O-])c1ccccc1SNc1nc(OCc2ccc(F)cc2)ncc1F [Compound 39, N-[5-Fluoro-2-(4-fluorobenzyloxy)-pyrimidin-4-yl]-S-(2-nitrophenyl)-thiohydroxylamine] | 76 to 100 | 76 to 100 | 0 to 25 | 0 to 25
24 | COc1cccc(COc2ncc(F)c(NS(N)(=O)=O)n2)c1 [Compound 43, [5-Fluoro-2-(3-methoxybenzyloxy)pyrimidin-4-yl]sulfamide] | 26 to 50 | 51 to 75 | 51 to 75 | 51 to 75
25 | COc1cccc(COc2ncc(F)c(NN)n2)c1 [Compound 44, 5-Fluoro-4-hydrazinyl-2-(3-methoxybenzyloxy)pyrimidine] | 0 to 25 | 76 to 100 | 51 to 75 | 76 to 100
26 | COc1cccc(COc2ncc(F)c(N/N=C/c3cccs3)n2)c1 [Compound 45, (E)-5-Fluoro-2-(3-methoxybenzyloxy)-4-(2-(thiophen-2-ylmethylene)-hydrazinyl)pyrimidine] | 51 to 75 | 76 to 100 | 26 to 50 | 26 to 50
27 | CCCNC(=S)Nc1nc(OCc2ccc(C)cc2)ncc1F [Compound 48] | 76 to 100 | 76 to 100 | 76 to 100 | 76 to 100
28 | CN(Oc1ncc(F)c(N)n1)C(=O)OC(C)(C)C [Compound 50, O-(4-Amino-5-fluoropyrimidin-2-yl)-t-butyl N-methyl-N-hydroxycarbamate] | 26 to 50 | 76 to 100 | 26 to 50 | 76 to 100
29 | CC(=O)Nc1nc(OCc2ccc(F)cc2)ncc1F [Compound 52] | 76 to 100 | 76 to 100 | 51 to 75 | 51 to 75
30 | CC(=S)Nc1nc(OCc2ccc(F)cc2)ncc1F [Compound 53, N-(5-Fluoro-2-(4-fluorobenzyloxy)pyrimidin-4-yl)ethanethioamide] | 76 to 100 | 76 to 100 | 76 to 100 | 76 to 100
31 | COc1cccc(COc2ncc(F)c(NC(=S)NCc3ccccc3F)n2)c1 [Compound 54] | 51 to 75 | 76 to 100 | 0 to 25 | 0 to 25
32 | Cn1ccc(COc2ncc(F)c(N)n2)n1 [Compound 55] | 76 to 100 | 76 to 100 | 76 to 100 | 76 to 100
33 | CC(Oc1ncc(F)c(N)n1)c1ccc2ccccc2c1 (stereo not drawn) [Compound 57] | 76 to 100 | 76 to 100 | 76 to 100 | 76 to 100
